Data from ChEMBL document CHEMBL5543142, “Discovery of YFJ-36: Design, Synthesis, and Antibacterial Activities of Catechol-Conjugated β-Lactams against Gram-Negative Bacteria” (J Med Chem, 2024).

Assays:
[1] = Clearance in ICR mouse at 20 mg/kg,iv administration measured upto 6 hrs by LC-MS/MS analysis; assay type: ADME, organism-based; conditions: in vivo
[2] = AUC (0 to infinity) in ICR mouse at 20 mg/kg,iv administration measured upto 6 hrs by LC-MS/MS analysis; assay type: ADME, organism-based; conditions: in vivo
[3] = MRT in ICR mouse at 20 mg/kg,iv administration measured upto 6 hrs by LC-MS/MS analysis; assay type: ADME, organism-based; conditions: in vivo
[4] = Volume of distribution at steady state in ICR mouse at 20 mg/kg,iv administration measured upto 6 hrs by LC-MS/MS analysis; assay type: ADME, organism-based; conditions: in vivo, read-out: Vdss
[5] = Half life in ICR mouse at 20 mg/kg,iv administration measured upto 6 hrs by LC-MS/MS analysis; assay type: ADME, organism-based; conditions: in vivo
Acinetobacter baumannii [6] = assay: Antibacterial activity against OXA-23 producing multidrug-resistant Acinetobacter baumannii clinical isolate 15-4 assessed as inhibition of bacterial growth incubated for 18 to 20 hrs by two fold serial dilution assay; assay type: functional; conditions: time 18-20 hrs
Acinetobacter baumannii [7] = assay: Antibacterial activity against OXA-23 producing multidrug-resistant Acinetobacter baumannii clinical isolate 15-5 assessed as inhibition of bacterial growth incubated for 18 to 20 hrs by two fold serial dilution assay; assay type: functional; conditions: time 18-20 hrs
Acinetobacter baumannii [8] = assay: Antibacterial activity against OXA-23 producing multidrug-resistant Acinetobacter baumannii clinical isolate 15-1 assessed as inhibition of bacterial growth incubated for 18 to 20 hrs by two fold serial dilution assay; assay type: functional; conditions: time 18-20 hrs
Acinetobacter baumannii [9] = assay: Antibacterial activity against OXA-23 producing multidrug-resistant Acinetobacter baumannii clinical isolate 17-2 assessed as inhibition of bacterial growth incubated for 18 to 20 hrs by two fold serial dilution assay; assay type: functional; conditions: time 18-20 hrs
Klebsiella pneumoniae [10] = assay: Antibacterial activity against KPC-2 producing multidrug-resistant Klebsiella pneumoniae clinical isolate 15-1 assessed as inhibition of bacterial growth incubated for 18 to 20 hrs by two fold serial dilution assay; assay type: functional; conditions: time 18-20 hrs
Pseudomonas aeruginosa [11] = assay: Antibacterial activity against IMP-4 producing multidrug-resistant Pseudomonas aeruginosa clinical isolate 19-17 assessed as inhibition of bacterial growth incubated for 18 to 20 hrs by two fold serial dilution assay; assay type: functional; conditions: time 18-20 hrs
Escherichia coli [12] = assay: Antibacterial activity against ESBL-producing multidrug-resistant Escherichia coli clinical isolate 14-4 assessed as inhibition of bacterial growth incubated for 18 to 20 hrs by two fold serial dilution assay; assay type: functional; conditions: time 18-20 hrs
Escherichia coli [13] = assay: Antibacterial activity against Escherichia coli ATCC35218 assessed as inhibition of bacterial growth incubated for 18 to 20 hrs by two fold serial dilution assay; assay type: functional; conditions: time 18-20 hrs
Acinetobacter baumannii [14] = assay: Antibacterial activity against OXA-23 producing multidrug-resistant Acinetobacter baumannii clinical isolate 17-3 assessed as inhibition of bacterial growth incubated for 18 to 20 hrs by two fold serial dilution assay; assay type: functional; conditions: time 18-20 hrs
Klebsiella pneumoniae [15] = assay: Antibacterial activity against KPC-2 producing multidrug-resistant Klebsiella pneumoniae clinical isolate 15-2 assessed as inhibition of bacterial growth incubated for 18 to 20 hrs by two fold serial dilution assay; assay type: functional; conditions: time 18-20 hrs
Klebsiella pneumoniae [16] = assay: Antibacterial activity against KPC-2 producing multidrug-resistant Klebsiella pneumoniae clinical isolate 15-3 assessed as inhibition of bacterial growth incubated for 18 to 20 hrs by two fold serial dilution assay; assay type: functional; conditions: time 18-20 hrs
Pseudomonas aeruginosa [17] = assay: Antibacterial activity against IMP-4 producing multidrug-resistant Pseudomonas aeruginosa clinical isolate 19-5 assessed as inhibition of bacterial growth incubated for 18 to 20 hrs by two fold serial dilution assay; assay type: functional; conditions: time 18-20 hrs
Acinetobacter baumannii [18] = assay: Antibacterial activity against OXA-23 producing multidrug-resistant Acinetobacter baumannii clinical isolate 15-3 assessed as inhibition of bacterial growth incubated for 18 to 20 hrs by two fold serial dilution assay; assay type: functional; conditions: time 18-20 hrs
Escherichia coli [19] = assay: Antibacterial activity against ESBL-producing multidrug-resistant Escherichia coli clinical isolate 14-1 assessed as inhibition of bacterial growth incubated for 18 to 20 hrs by two fold serial dilution assay; assay type: functional; conditions: time 18-20 hrs
Escherichia coli [20] = assay: Antibacterial activity against ESBL-producing multidrug-resistant Escherichia coli clinical isolate 14-2 assessed as inhibition of bacterial growth incubated for 18 to 20 hrs by two fold serial dilution assay; assay type: functional; conditions: time 18-20 hrs
Pseudomonas aeruginosa [21] = assay: Antibacterial activity against IMP-4 producing multidrug-resistant Pseudomonas aeruginosa clinical isolate 17-13 assessed as inhibition of bacterial growth incubated for 18 to 20 hrs by two fold serial dilution assay; assay type: functional; conditions: time 18-20 hrs
Klebsiella pneumoniae [22] = assay: Antibacterial activity against KPC-2 producing multidrug-resistant Klebsiella pneumoniae clinical isolate 15-5 assessed as inhibition of bacterial growth incubated for 18 to 20 hrs by two fold serial dilution assay; assay type: functional; conditions: time 18-20 hrs
Acinetobacter baumannii [23] = assay: Antibacterial activity against OXA-23 producing multidrug-resistant Acinetobacter baumannii clinical isolate 15-2 assessed as inhibition of bacterial growth incubated for 18 to 20 hrs by two fold serial dilution assay; assay type: functional; conditions: time 18-20 hrs
Pseudomonas aeruginosa [24] = assay: Antibacterial activity against IMP-4 producing multidrug-resistant Pseudomonas aeruginosa clinical isolate 19-1 assessed as inhibition of bacterial growth incubated for 18 to 20 hrs by two fold serial dilution assay; assay type: functional; conditions: time 18-20 hrs

Q: With `CC(C)(O/N=C(\C(=O)N[C@@H]1C(=O)N2C(C(=O)[O-])=C(C[N+]3(CCNC(=O)c4ccc(O)c(O)c4Cl)CCCC3)CS[C@H]12)c1csc(N)n1)C(=O)O.O=C(O)C(F)(F)F` as the compound, how does the clearance [1] read?
A: 25.2 mL/min/kg

Q: And the AUC(0-inf) [2]?
A: 11600 ng·h/mL

Q: What about the MRT [3] of the same compound?
A: 26.4 min

Q: What about the Vd [4] of the same compound?
A: 0.663 L/kg

Q: What about the half-life [5] of the same compound?
A: 33 min

Q: With `Nc1nc(/C(=N/OC(C(=O)O)C2CCCCC2)C(=O)N[C@@H]2C(=O)N3C(C(=O)O)=C(CSCCNC(=O)c4ccc(O)c(O)c4Cl)CS[C@H]23)c(Cl)s1.O=C(O)C(F)(F)F` (stereo partly specified) as the compound, how does the MIC (Acinetobacter baumannii [6]) read?
A: 2 µg/mL

Q: What about the MIC (Acinetobacter baumannii [7]) of the same compound?
A: 4 µg/mL

Q: And the MIC (Acinetobacter baumannii [8])?
A: 4 µg/mL

Q: What about the MIC (Acinetobacter baumannii [9]) of the same compound?
A: 1 µg/mL

Q: And the MIC (Klebsiella pneumoniae [10])?
A: 1 µg/mL

Q: What about the MIC (Pseudomonas aeruginosa [11]) of the same compound?
A: 0.5 µg/mL

Q: What about the MIC (Escherichia coli [12]) of the same compound?
A: 0.5 µg/mL

Q: And the MIC (Escherichia coli [13])?
A: 0.125 µg/mL

Q: What about the MIC (Acinetobacter baumannii [14]) of the same compound?
A: 2 µg/mL

Q: What about the MIC (Klebsiella pneumoniae [15]) of the same compound?
A: 1 µg/mL

Q: And the MIC (Klebsiella pneumoniae [16])?
A: 2 µg/mL

Q: And the MIC (Pseudomonas aeruginosa [17])?
A: 1 µg/mL

Q: And the MIC (Acinetobacter baumannii [18])?
A: 4 µg/mL

Q: And the MIC (Escherichia coli [19])?
A: 0.25 µg/mL

Q: And the MIC (Escherichia coli [20])?
A: 0.5 µg/mL

Q: And the MIC (Pseudomonas aeruginosa [21])?
A: 0.25 µg/mL

Q: What about the MIC (Klebsiella pneumoniae [22]) of the same compound?
A: 1 µg/mL

Q: And the MIC (Acinetobacter baumannii [23])?
A: 2 µg/mL

Q: What does the source list for `Nc1nc(/C(=N/OC(C(=O)O)C2CCCCC2)C(=O)N[C@@H]2C(=O)N3C(C(=O)O)=C(CSCCNC(=O)c4ccc(O)c(O)c4Cl)CS[C@H]23)c(Br)s1.O=C(O)C(F)(F)F` (stereo partly specified)?
A: MIC (Acinetobacter baumannii [6]): 2 µg/mL; MIC (Acinetobacter baumannii [7]): 1 µg/mL; MIC (Acinetobacter baumannii [8]): 2 µg/mL; MIC (Acinetobacter baumannii [9]): 1 µg/mL; MIC (Klebsiella pneumoniae [10]): 2 µg/mL; MIC (Pseudomonas aeruginosa [11]): 0.5 µg/mL; MIC (Escherichia coli [12]): 0.25 µg/mL; MIC (Escherichia coli [13]): 0.06 µg/mL; MIC (Acinetobacter baumannii [14]): 1 µg/mL; MIC (Klebsiella pneumoniae [15]): 2 µg/mL; MIC (Klebsiella pneumoniae [16]): 8 µg/mL; MIC (Pseudomonas aeruginosa [17]): 1 µg/mL; MIC (Acinetobacter baumannii [18]): 2 µg/mL; MIC (Escherichia coli [19]): 1 µg/mL; MIC (Escherichia coli [20]): 0.5 µg/mL; MIC (Pseudomonas aeruginosa [24]): 4 µg/mL; MIC (Pseudomonas aeruginosa [21]): 0.25 µg/mL; MIC (Klebsiella pneumoniae [22]): 1 µg/mL; MIC (Acinetobacter baumannii [23]): 1 µg/mL

Q: Which clearance [1] does the source give for `Cc1ccc(S(=O)(=O)O)cc1.Nc1nc(/C(=N/OC(C(=O)O)C2CCC(F)(F)CC2)C(=O)N[C@@H]2C(=O)N3C(C(=O)O)=C(CSCCNC(=O)c4ccc(O)c(O)c4Cl)CS[C@H]23)cs1` (stereo partly specified) here?
A: 31.3 mL/min/kg

Q: And the AUC(0-inf) [2]?
A: 11600 ng·h/mL

Q: What about the MRT [3] of the same compound?
A: 12 min

Q: And the Vd [4]?
A: 0.402 L/kg

Q: What about the half-life [5] of the same compound?
A: 45 min

Q: With `Nc1nc(/C(=N/OC(C(=O)O)C2CCC(F)(F)CC2)C(=O)N[C@@H]2C(=O)N3C(C(=O)O)=C(CSCCNC(=O)c4ccc(O)c(O)c4Cl)CS[C@H]23)ns1.O=C(O)C(F)(F)F` (stereo partly specified) as the compound, how does the MIC (Acinetobacter baumannii [9]) read?
A: 0.25 µg/mL

Q: What about the MIC (Klebsiella pneumoniae [10]) of the same compound?
A: 16 µg/mL

Q: And the MIC (Pseudomonas aeruginosa [11])?
A: 1 µg/mL

Q: What about the MIC (Escherichia coli [12]) of the same compound?
A: 1 µg/mL

Q: And the MIC (Escherichia coli [13])?
A: 0.25 µg/mL

Q: What about the MIC (Acinetobacter baumannii [14]) of the same compound?
A: 0.25 µg/mL

Q: What about the MIC (Klebsiella pneumoniae [15]) of the same compound?
A: 32 µg/mL

Q: And the MIC (Klebsiella pneumoniae [16])?
A: 16 µg/mL

Q: What about the MIC (Pseudomonas aeruginosa [17]) of the same compound?
A: 4 µg/mL

Q: What about the MIC (Escherichia coli [19]) of the same compound?
A: 1 µg/mL

Q: And the MIC (Escherichia coli [20])?
A: 4 µg/mL

Q: And the MIC (Pseudomonas aeruginosa [24])?
A: 8 µg/mL

Q: What about the MIC (Pseudomonas aeruginosa [21]) of the same compound?
A: 0.5 µg/mL

Q: What about the MIC (Klebsiella pneumoniae [22]) of the same compound?
A: 16 µg/mL

Q: For `CC1CCC(C(O/N=C(\C(=O)N[C@@H]2C(=O)N3C(C(=O)O)=C(CSCCNC(=O)c4ccc(O)c(O)c4Cl)CS[C@H]23)c2csc(N)n2)C(=O)O)CC1.O=C(O)C(F)(F)F` (stereo partly specified), which MIC (Acinetobacter baumannii [6]) is on record?
A: 4 µg/mL

Q: And the MIC (Acinetobacter baumannii [7])?
A: 8 µg/mL

Q: And the MIC (Acinetobacter baumannii [8])?
A: 4 µg/mL

Q: What about the MIC (Klebsiella pneumoniae [10]) of the same compound?
A: 1 µg/mL

Q: And the MIC (Pseudomonas aeruginosa [11])?
A: 0.5 µg/mL

Q: What about the clearance [1] of the same compound?
A: 60.3 mL/min/kg

Q: What about the MIC (Escherichia coli [12]) of the same compound?
A: 0.125 µg/mL

Q: What about the MIC (Escherichia coli [13]) of the same compound?
A: ≤ 0.03 µg/mL

Q: What about the MIC (Klebsiella pneumoniae [15]) of the same compound?
A: 0.5 µg/mL

Q: And the AUC(0-inf) [2]?
A: 5760 ng·h/mL

Q: What about the MRT [3] of the same compound?
A: 35.4 min

Q: And the MIC (Klebsiella pneumoniae [16])?
A: 1 µg/mL

Q: And the MIC (Acinetobacter baumannii [18])?
A: 4 µg/mL

Q: And the MIC (Escherichia coli [19])?
A: 0.5 µg/mL

Q: What about the MIC (Escherichia coli [20]) of the same compound?
A: 0.5 µg/mL

Q: And the Vd [4]?
A: 2.37 L/kg

Q: And the half-life [5]?
A: 139 min

Q: What about the MIC (Pseudomonas aeruginosa [21]) of the same compound?
A: 0.5 µg/mL

Q: What about the MIC (Klebsiella pneumoniae [22]) of the same compound?
A: 0.5 µg/mL

Q: And the MIC (Acinetobacter baumannii [23])?
A: 8 µg/mL
